Where a SMILES comes first, the peptide text is derived from it. [ ]: non-standard residue; d: D form. Aib = CC(C)(N)C(=O)O
Columns and labels:
Assay in all cases: biochemical
Assay type in all cases: binding
HLA-DRB1*01:01 = molecular target: T1, HLA-DRB1*01:01 (Homo sapiens, UniProt P01903+P01911, A100R/D57E/F55L/F60I/F76Y/I96L/L162R/M171V/P40L/Q125E/R42F/V115G/Y59C); conditions: […]; mean of at least two independent experiments; read-out: IC50 DRB1*0101
T1 construct: Human leukocyte antigen-DR molecules were immunopurified from homozygous EBV B lymphoblastoid cells; endogenous in cells

HLA-DRB1*04:01 = molecular target: T2, HLA-DRB1*04:01 (Homo sapiens, UniProt P01903+P01911, A100K/A169T/F76Y/I96L/K127E/L162R/M171V/N62H/P40V/Q125Y/R42H/S133A/S149N/S66Y/V115G/V209L/W38E); conditions: […]; mean of at least two independent experiments; read-out: IC50 DRB1*0401
T2 construct: Human leukocyte antigen-DR molecules were immunopurified from homozygous EBV B lymphoblastoid cells; endogenous in cells

HLA-DRB1*07:01 = HLA-DRB1*07:01 (Homo sapiens, UniProt P01903+P01911, A100R/A102G/A103Q/D57E/D86V/E43K/F76Y/K127E/L162R/M171V/P40G/Q125H/Q99D/R33Q/R42Y/R54Q/S133A/S66F/T210M/V115G/Y107V/Y59L/Y89S); conditions: […]; mean of at least two independent experiments; read-out: IC50 DRB1*0701 (converted)
HLA-DRB1*11:01 = HLA-DRB1*11:01 (Homo sapiens, UniProt P01903+P01911, A100R/A169T/A87E/I96F/K41T/L162R/M171V/P40S/Q125H/Q178H/Q39Y/Q99D/R42S/S66Y/T262R/V115G/W38E); conditions: […]; mean of at least two independent experiments; read-out: IC50 DRB1*1101 (converted)
Chain of HLA-DRB1*11:01 (P01903 26-254 limits assumed, other chains not shown): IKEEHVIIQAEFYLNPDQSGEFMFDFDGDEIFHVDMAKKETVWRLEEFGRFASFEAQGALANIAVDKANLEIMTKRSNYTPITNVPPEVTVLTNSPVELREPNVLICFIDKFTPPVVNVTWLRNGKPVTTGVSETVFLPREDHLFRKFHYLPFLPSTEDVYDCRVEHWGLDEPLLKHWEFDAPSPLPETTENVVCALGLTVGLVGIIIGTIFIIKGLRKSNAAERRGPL
HLA-DRB5*01:01 = molecular target: T3, HLA-DRB5*01:01 (Homo sapiens, UniProt P01903+Q30154); conditions: […]; mean of at least two independent experiments; read-out: IC50 DRB5*0101
T3 construct: Human leukocyte antigen-DR molecules were immunopurified from homozygous EBV B lymphoblastoid cells; endogenous in cells

| Compound | IC50 (HLA-DRB1*01:01) [nM] | IC50 (HLA-DRB1*04:01) [nM] | IC50 (HLA-DRB1*07:01) [nM] | IC50 (HLA-DRB1*11:01) [nM] | IC50 (HLA-DRB5*01:01) [nM] |
| --- | --- | --- | --- | --- | --- |
| CC(C)C[C@H](NC(=O)[C@H](CCCCN)NC(=O)[C@H](CC(C)C)NC(=O)[C@@H](NC(=O)[C@H](CC(N)=O)NC(=O)[C@H](CCC(N)=O)NC(=O)[C@H](CCCCN)NC(=O)[C@@H](NC(=O)[C@H](Cc1ccc(O)cc1)NC(=O)[C@H](CCCCN)NC(=O)C(C)(C)N)C(C)C)[C@@H](C)O)C(=O)N[C@@H](C)C(=O)N[C@H](C(=O)O)[C@@H](C)O [Aib1] (H-[Aib]KYVKQNTLKLAT-OH) | 0.3 | 20 | 11 | 18 | 3 |
| CC(C)C[C@H](NC(=O)[C@H](CCCCN)NC(=O)[C@H](CC(C)C)NC(=O)[C@@H](NC(=O)[C@H](CC(N)=O)NC(=O)[C@H](CCC(N)=O)NC(=O)[C@H](CCCCN)NC(=O)[C@@H](NC(=O)[C@H](Cc1ccc(O)cc1)NC(=O)C(C)(C)NC(=O)[C@@H]1CCCN1)C(C)C)[C@@H](C)O)C(=O)N[C@@H](C)C(=O)N[C@H](C(=O)O)[C@@H](C)O [Aib2] (H-P[Aib]YVKQNTLKLAT-OH) | 8 | 95 | 7700 | 4000 | 500 |
| CC(C)C[C@H](NC(=O)[C@H](CCCCN)NC(=O)[C@H](CC(C)C)NC(=O)[C@@H](NC(=O)[C@H](CC(N)=O)NC(=O)[C@H](CCC(N)=O)NC(=O)[C@H](CCCCN)NC(=O)[C@@H](NC(=O)C(C)(C)NC(=O)[C@H](CCCCN)NC(=O)[C@@H]1CCCN1)C(C)C)[C@@H](C)O)C(=O)N[C@@H](C)C(=O)N[C@H](C(=O)O)[C@@H](C)O [Aib3] | 60 | > 100000 | 460 | > 100000 | > 10000 |
| CC(C)C[C@H](NC(=O)[C@H](CCCCN)NC(=O)[C@H](CC(C)C)NC(=O)[C@@H](NC(=O)[C@H](CC(N)=O)NC(=O)[C@H](CCC(N)=O)NC(=O)[C@H](CCCCN)NC(=O)C(C)(C)NC(=O)[C@H](Cc1ccc(O)cc1)NC(=O)[C@H](CCCCN)NC(=O)[C@@H]1CCCN1)[C@@H](C)O)C(=O)N[C@@H](C)C(=O)N[C@H](C(=O)O)[C@@H](C)O [Aib4] | 10 | 75 | 6000 | 4000 | 280 |
| CC(C)C[C@H](NC(=O)[C@H](CCCCN)NC(=O)[C@H](CC(C)C)NC(=O)[C@@H](NC(=O)[C@H](CC(N)=O)NC(=O)[C@H](CCC(N)=O)NC(=O)C(C)(C)NC(=O)[C@@H](NC(=O)[C@H](Cc1ccc(O)cc1)NC(=O)[C@H](CCCCN)NC(=O)[C@@H]1CCCN1)C(C)C)[C@@H](C)O)C(=O)N[C@@H](C)C(=O)N[C@H](C(=O)O)[C@@H](C)O [Aib5] | 1 | 30 | 780 | 300 | 600 |
| CC(C)C[C@H](NC(=O)[C@H](CCCCN)NC(=O)[C@H](CC(C)C)NC(=O)[C@@H](NC(=O)[C@H](CC(N)=O)NC(=O)C(C)(C)NC(=O)[C@H](CCCCN)NC(=O)[C@@H](NC(=O)[C@H](Cc1ccc(O)cc1)NC(=O)[C@H](CCCCN)NC(=O)[C@@H]1CCCN1)C(C)C)[C@@H](C)O)C(=O)N[C@@H](C)C(=O)N[C@H](C(=O)O)[C@@H](C)O [Aib6] | 0.7 | 55000 | 75 | 150 | 5 |
| CC(C)C[C@H](NC(=O)[C@H](CCCCN)NC(=O)[C@H](CC(C)C)NC(=O)[C@@H](NC(=O)C(C)(C)NC(=O)[C@H](CCC(N)=O)NC(=O)[C@H](CCCCN)NC(=O)[C@@H](NC(=O)[C@H](Cc1ccc(O)cc1)NC(=O)[C@H](CCCCN)NC(=O)[C@@H]1CCCN1)C(C)C)[C@@H](C)O)C(=O)N[C@@H](C)C(=O)N[C@H](C(=O)O)[C@@H](C)O [Aib7] (H-PKYVKQ[Aib]TLKLAT-OH) | 6.8 | 45 | 4200 | 6000 | 900 |
| CC(C)C[C@H](NC(=O)[C@H](CCCCN)NC(=O)[C@H](CC(C)C)NC(=O)C(C)(C)NC(=O)[C@H](CC(N)=O)NC(=O)[C@H](CCC(N)=O)NC(=O)[C@H](CCCCN)NC(=O)[C@@H](NC(=O)[C@H](Cc1ccc(O)cc1)NC(=O)[C@H](CCCCN)NC(=O)[C@@H]1CCCN1)C(C)C)C(=O)N[C@@H](C)C(=O)N[C@H](C(=O)O)[C@@H](C)O [Aib8] | 0.8 | 140 | 90 | 550 | 140 |
| CC(C)C[C@H](NC(=O)[C@@H](NC(=O)[C@H](CC(N)=O)NC(=O)[C@H](CCC(N)=O)NC(=O)[C@H](CCCCN)NC(=O)[C@@H](NC(=O)[C@H](Cc1ccc(O)cc1)NC(=O)[C@H](CCCCN)NC(=O)[C@@H]1CCCN1)C(C)C)[C@@H](C)O)C(=O)NC(C)(C)C(=O)N[C@@H](CC(C)C)C(=O)N[C@@H](C)C(=O)N[C@H](C(=O)O)[C@@H](C)O [Aib10] | 9 | 490 | 16000 | 8000 | 5000 |
| CC(C)C[C@H](NC(=O)[C@@H](NC(=O)[C@H](CC(N)=O)NC(=O)[C@H](CCC(N)=O)NC(=O)[C@H](CCCCN)NC(=O)[C@@H](NC(=O)[C@H](Cc1ccc(O)cc1)NC(=O)[C@H](CCCCN)NC(=O)[C@@H]1CCCN1)C(C)C)[C@@H](C)O)C(=O)N[C@@H](CCCCN)C(=O)NC(C)(C)C(=O)N[C@@H](C)C(=O)N[C@H](C(=O)O)[C@@H](C)O [Aib11] | 20 | 25 | 3000 | 350 | 95 |
| CC(C)C[C@H](NC(=O)[C@H](CCCCN)NC(=O)[C@H](CC(C)C)NC(=O)[C@@H](NC(=O)[C@H](CC(N)=O)NC(=O)[C@H](CCC(N)=O)NC(=O)[C@H](CCCCN)NC(=O)[C@@H](NC(=O)[C@H](Cc1ccc(O)cc1)NC(=O)[C@H](CCCCN)NC(=O)[C@@H]1CCCN1)C(C)C)[C@@H](C)O)C(=O)NC(C)(C)C(=O)N[C@H](C(=O)O)[C@@H](C)O [Aib12] | 0.7 | 32 | 9 | 100 | 5 |
| CC(C)C[C@H](NC(=O)[C@H](CCCCN)NC(=O)[C@H](CC(C)C)NC(=O)[C@@H](NC(=O)[C@H](CC(N)=O)NC(=O)[C@H](CCC(N)=O)NC(=O)[C@H](CCCCN)NC(=O)[C@@H](NC(=O)[C@H](Cc1ccc(O)cc1)NC(=O)[C@H](CCCCN)NC(=O)[C@@H]1CCCN1)C(C)C)[C@@H](C)O)C(=O)N[C@@H](C)C(=O)NC(C)(C)C(=O)O [Aib13] | 0.2 | 6 | 6 | 8 | 2 |
| CC(C)C[C@H](NC(=O)[C@H](CCCCN)NC(=O)[C@H](CC(C)C)NC(=O)[C@@H](NC(=O)[C@H](CC(N)=O)NC(=O)[C@H](CCC(N)=O)NC(=O)[C@H](CCCCN)NC(=O)[C@@H](NC(=O)CN(Cc1ccc(O)cc1)C(=O)[C@H](CCCCN)NC(=O)[C@@H]1CCCN1)C(C)C)[C@@H](C)O)C(=O)N[C@@H](C)C(=O)N[C@H](C(=O)O)[C@@H](C)O [Pep3] | 4000 | > 10000 | > 100000 | > 100000 | 14000 |
| CC(C)C[C@H](NC(=O)[C@H](CCCCN)NC(=O)[C@H](CC(C)C)NC(=O)[C@@H](NC(=O)[C@H](CC(N)=O)NC(=O)[C@H](CCC(N)=O)NC(=O)[C@H](CCCCN)NC(=O)CN(C(=O)[C@H](Cc1ccc(O)cc1)NC(=O)[C@H](CCCCN)NC(=O)[C@@H]1CCCN1)C(C)C)[C@@H](C)O)C(=O)N[C@@H](C)C(=O)N[C@H](C(=O)O)[C@@H](C)O [Pep4] | 5 | 14 | 710 | 6000 | 280 |

Reference: publication PMC7991740, “Introduction of Non-natural Amino Acids Into T-Cell Epitopes to Mitigate Peptide-Specific T-Cell Responses” (Frontiers in Immunology, 2021)
